In patent publication EP4458352A1, “EICOSAPENTAENOIC ACID ESTER DERIVATIVES FOR THE TREATMENT OF OBESITY” (Technische Universität Dresden, priority 2023, dated 2024):

Tested on: NCI-H295R cells
Assay: Lipidomic analysis (LC-MS/MS) of mitochondrial fractions of NCI-H295R cells treated with SC-26196
Assay type: cell-based, Human
Details: SC-26196 10 µM, 18 h vs DMSO
Protocol: NCI-H295R cells (obtained from ATCC Cat# CRL-2128) were maintained in DMEM/F12 medium supplemented with 2.5 % Nu-Serum type I (Corning), 1 % Insulin Transferrin Selenium (ITS; Gibco), 50 U/mL penicillin and 50 µg/mL streptomycin. They were treated for 18 h with 10 µM SC-26196 or DMSO. In some experiments, NCI-H295R cells were treated or not for 48 h 66 µM EPA and in the last 24 h they were stimulated or not with forskolin (10 µM; Sigma-Aldrich).
Cells were trypsinized and pelleted by centrifugation (500xg, 5 min, 4 °C). The cells were gently resuspended in homogenization buffer (200 mM mannitol, 50 mM sucrose, 10 mM KCI, […] 25 mM HEPES, pH 7.4, 1 µM aprotinin, 10 µM leupeptin, 20 µM PMSF) and homogenized on ice with 20 strokes of tight Dounce homogenizer. The samples were then centrifuged (800xg, 10 min, 4 °C) to pellet the nuclei. The supernatant was mixed with iodixanol solution (Optiprep, Sigma-Aldrich) to a final concentration of 20 %. The samples were placed at the bottom of a tube and overlaid with 500 µl iodixanol solutions (18 %, 16 %, 14 %, 12 %, 10 %, 5 %) and finally with 500 µl of HBS (50 mM HEPES, 150 mM NaCl, pH 7.4). The samples were centrifuged in Beckman SW60Ti swing-out rotor (45,000 rpm, 5 h, 4 °C). After centrifugation fifteen 280 µl aliquots were collected from top of the tubes.
Fractions 10-12 (SDHB-positive) and 4-5 (HSL-positive) were considered as mitochondrial and lipid droplet fractions, respectively. Protein concentration was measured in the mitochondrial and lipid droplet pools with the BCA Protein Assay Kit (Thermo Fisher) and fractions were analyzed for cholesterol and CE concentrations.
Fractions containing mitochondria were combined and extracted with three volumes of ice-cold chloroform/methanol (10:1, v/v, both containing 0.1 % butylated hydroxytoluene (Merck, ≥99 %)). Samples were incubated on ice for 15 min, before the organic phase was collected after centrifugation (5 min, 5,000 × g). The aqueous phase was re-extracted with two volumes chloroform/methanol as described above. Combined organic phases were dried in vacuo. Methanol (ULC-MS grade, Biosolve B.V.) and chloroform (EMSURE ACS, ISO, Reag. Ph Eur; Supleco) were of highest purity.
Lipid extracts were dissolved in 50 µL 2-propanol (ULC/MS-CC/SFC grade, >99.95 %; Biosolve B.V.) and analyzed by LC-MS/MS. Lipids (2.5 µL loaded in positive mode, 5 µL in negative mode) were separated by reverse phase chromatography (Accucore C30 column; 150 mm × 2.1 mm 2.6 µM 150 Å, Thermo Fisher Scientific) using a Vanquish Horizon UHPLC system (Thermo Fisher Scientific) coupled on-line to a Q Exactive Plus Hybrid Quadrupole Orbitrap mass spectrometer (Thermo Fisher Scientific, Bremen, Germany) equipped with a HESI source. Column was operated at 50 °C and flow rate of 0.3 mL/min. […]

`N#CC(CCCN1CCN(/N=C/c2cccnc2)CC1)(c1ccccc1)c1ccccc1` [SC-26196] was tested, and the “abundance of PC and PE containing PUFA acyl chains in mitochondrial fractions” value was “reduced”, the “lipids with saturated or monounsaturated acyl chains in mitochondrial fractions” value was “increased” and the “mitochondrial lipidome (PCA)” value (n=3) was “reprogramed the mitochondrial lipidome”. For the same compound, the “Cardiolipins in mitochondrial fractions” value (not shown) was “remained unaffected”.
